Test results: US7045320B2, “Methods for producing L-amino acids” (priority 2001, dated 2006)

Experiments:
Format in all cases: biochemical
[1] = target: T1, TrpE5 mutant anthranilate synthase (Escherichia coli, UniProt P00895, P21S); experiment: Ki value of anthranilate synthase (AS) to L-tryptophan, TrpE5
T1 construct: endogenous in cells; host or cells: 5-methyltryptophan-resistant mutant of E. coli K12 YMC9 (gene later cloned as pE5)
Protocol: (§1) Following the culture for 24–48 hours at 37° C., 5-methyltryptophan resistant clones were seeded on the aforementioned agar medium. In order to examine properties of the obtained mutant strain, Ki value of AS to L-tryptophan was measured (Bauerle R. et al., Methods in Enzymology, 142, pp.366–386, 1987). As a result, the mutant strains could be classified into two classes. The class 1 mutant strains had feedback resistant anthranilate synthase. […] The AS genes of these mutant strains were cloned and their nucleotide sequences were determined. Chromosomal DNA of each mutant strain was isolated and digested with restriction enzymes NheI and ClaI to isolate a fragment of about 5 kb, and this fragment was ligated with the NheI/ClaI fragment (4158 bp) of pBR322.
(§2) E. coli KB 862 (trpE) (DSM7196) was transformed with the ligation reaction product. A clone that could grow on a minimal medium not containing L-tryptophan was selected. All the plasmids complementing the trpE mutation contained the NheI/ClaI fragment of 5 kb. Further, this 5 kb NheI/ClaI fragment contained trpE, trpD, a sequence about 0.8 kb upstream from trpE, and a sequence about 1 kb downstream from trpD. Differences in amino acid sequences of mutant AS encoded by plasmids (pE0, pE5, pE6, pE8) contained in the mutant strains and their Ki values are shown in Table 1.

[2] = target: T2, Wild type trpE anthranilate synthase (Escherichia coli, UniProt P00895); experiment: Ki value of anthranilate synthase (AS) to L-tryptophan, wild type
T2 construct: endogenous in cells
Protocol: as §1, §2

[3] = target: T3, TrpE6 mutant anthranilate synthase (Escherichia coli, UniProt P00895, K50E/S40F); experiment: Ki value of anthranilate synthase (AS) to L-tryptophan, TrpE6
T3 construct: endogenous in cells; host or cells: 5-methyltryptophan-resistant mutant of E. coli K12 YMC9 (gene later cloned as pE6)
Protocol: as §1, §2

[4] = target: T4, TrpE0 mutant anthranilate synthase (Escherichia coli, UniProt P00895, K50E); experiment: Ki value of anthranilate synthase (AS) to L-tryptophan, TrpE0
T4 construct: endogenous in cells; host or cells: 5-methyltryptophan-resistant mutant of E. coli K12 YMC9 (gene later cloned as pE0)
Protocol: as §1, §2

T3 sequence (P00895 whole entry S40F/K50E): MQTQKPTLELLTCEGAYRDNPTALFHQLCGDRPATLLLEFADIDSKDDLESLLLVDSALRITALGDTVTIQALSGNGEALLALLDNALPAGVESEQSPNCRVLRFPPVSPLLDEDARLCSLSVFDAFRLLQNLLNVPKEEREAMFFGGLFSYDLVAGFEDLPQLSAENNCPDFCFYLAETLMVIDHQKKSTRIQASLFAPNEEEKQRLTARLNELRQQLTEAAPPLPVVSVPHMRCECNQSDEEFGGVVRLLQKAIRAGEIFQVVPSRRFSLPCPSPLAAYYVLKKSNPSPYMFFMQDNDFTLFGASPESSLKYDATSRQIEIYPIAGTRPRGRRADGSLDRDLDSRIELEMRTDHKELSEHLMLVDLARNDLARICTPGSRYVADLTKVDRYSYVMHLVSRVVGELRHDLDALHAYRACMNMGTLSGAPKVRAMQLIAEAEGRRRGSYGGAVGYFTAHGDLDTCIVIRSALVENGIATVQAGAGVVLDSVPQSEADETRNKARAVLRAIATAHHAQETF
T3 sequence (P00904 2-531, further chain): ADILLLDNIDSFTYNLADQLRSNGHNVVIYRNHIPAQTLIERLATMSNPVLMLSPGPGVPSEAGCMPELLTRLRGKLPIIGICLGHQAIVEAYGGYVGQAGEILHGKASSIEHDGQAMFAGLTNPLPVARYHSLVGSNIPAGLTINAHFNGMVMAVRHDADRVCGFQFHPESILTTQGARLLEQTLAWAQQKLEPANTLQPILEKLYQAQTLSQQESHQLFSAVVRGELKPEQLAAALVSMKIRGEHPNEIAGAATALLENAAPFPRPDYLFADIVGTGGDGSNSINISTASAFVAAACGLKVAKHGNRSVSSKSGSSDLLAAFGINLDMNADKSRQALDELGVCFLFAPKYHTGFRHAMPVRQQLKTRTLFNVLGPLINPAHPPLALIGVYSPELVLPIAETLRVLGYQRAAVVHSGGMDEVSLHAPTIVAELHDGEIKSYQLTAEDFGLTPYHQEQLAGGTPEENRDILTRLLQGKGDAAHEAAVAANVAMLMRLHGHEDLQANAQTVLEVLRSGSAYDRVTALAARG
T2 sequence (P00904 2-531): as the sequence (P00904 2-531, further chain) above
T2 sequence (P00895 whole entry): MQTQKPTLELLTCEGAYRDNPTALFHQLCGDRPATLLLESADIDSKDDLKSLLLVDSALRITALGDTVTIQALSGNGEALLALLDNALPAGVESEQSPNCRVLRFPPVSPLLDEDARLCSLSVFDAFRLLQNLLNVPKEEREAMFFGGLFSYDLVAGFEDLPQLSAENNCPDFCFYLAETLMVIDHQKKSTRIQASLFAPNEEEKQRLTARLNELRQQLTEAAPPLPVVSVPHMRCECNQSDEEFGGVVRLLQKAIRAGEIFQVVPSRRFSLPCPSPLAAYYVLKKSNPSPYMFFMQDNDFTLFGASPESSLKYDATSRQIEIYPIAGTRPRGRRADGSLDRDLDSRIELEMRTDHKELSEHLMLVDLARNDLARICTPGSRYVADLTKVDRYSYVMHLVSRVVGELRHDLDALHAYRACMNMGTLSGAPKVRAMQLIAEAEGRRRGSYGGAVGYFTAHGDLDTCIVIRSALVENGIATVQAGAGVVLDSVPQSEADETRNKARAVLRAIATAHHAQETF
T4 sequence (P00904 2-531): as the sequence (P00904 2-531, further chain) above
T4 sequence (P00895 whole entry K50E): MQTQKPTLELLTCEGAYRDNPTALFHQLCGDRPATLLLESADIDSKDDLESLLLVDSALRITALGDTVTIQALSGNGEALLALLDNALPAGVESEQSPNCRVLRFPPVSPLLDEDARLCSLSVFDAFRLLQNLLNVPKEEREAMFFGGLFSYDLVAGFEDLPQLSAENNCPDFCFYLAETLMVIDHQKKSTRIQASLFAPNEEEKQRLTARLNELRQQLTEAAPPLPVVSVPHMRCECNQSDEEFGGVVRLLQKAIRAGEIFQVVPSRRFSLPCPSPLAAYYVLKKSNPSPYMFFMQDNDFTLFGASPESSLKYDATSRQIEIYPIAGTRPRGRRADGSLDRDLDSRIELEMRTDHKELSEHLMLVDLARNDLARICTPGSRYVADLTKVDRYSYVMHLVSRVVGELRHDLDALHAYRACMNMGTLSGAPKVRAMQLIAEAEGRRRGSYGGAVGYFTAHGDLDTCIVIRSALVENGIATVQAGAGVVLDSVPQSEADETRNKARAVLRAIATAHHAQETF
T1 sequence (P00904 2-531): as the sequence (P00904 2-531, further chain) above
T1 sequence (P00895 whole entry P21S): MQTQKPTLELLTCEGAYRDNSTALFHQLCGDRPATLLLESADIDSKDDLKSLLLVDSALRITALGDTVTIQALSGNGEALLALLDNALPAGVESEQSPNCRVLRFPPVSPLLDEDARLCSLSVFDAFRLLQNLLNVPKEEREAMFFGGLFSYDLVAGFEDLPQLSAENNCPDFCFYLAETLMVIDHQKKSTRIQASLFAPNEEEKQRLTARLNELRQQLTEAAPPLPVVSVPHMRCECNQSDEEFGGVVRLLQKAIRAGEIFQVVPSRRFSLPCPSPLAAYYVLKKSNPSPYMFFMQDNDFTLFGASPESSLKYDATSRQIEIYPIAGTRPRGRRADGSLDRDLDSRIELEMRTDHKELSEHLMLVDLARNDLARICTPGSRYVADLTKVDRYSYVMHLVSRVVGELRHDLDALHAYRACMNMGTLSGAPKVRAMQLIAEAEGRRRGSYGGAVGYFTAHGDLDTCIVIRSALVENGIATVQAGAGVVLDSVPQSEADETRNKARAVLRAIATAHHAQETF

SMILES: N[C@@H](Cc1c[nH]c2ccccc12)C(=O)O [L-tryptophan]
- Ki [1]: 3000 µM
- Ki [2]: 10 µM
- Ki [3]: > 15000 µM
- Ki [4]: 100 µM
